Series [1] addresses JAK3 (Homo sapiens (Human), UniProt P52333). The experiment in a line: Biochemical JAK and Tyk2 Kinase Assays (LanthaScreen), JAK3. The settings on record: 1.6 μM ATP (Km); pIC50 converted to pKi by Cheng-Prusoff. The procedure:
(§1) Assay 1: Biochemical JAK and Tyk2 Kinase Assays
(§2) A panel of four LanthaScreen JAK biochemical assays (JAK1, 2, 3 and Tyk2) were carried in a common kinase reaction buffer (50 mM HEPES, pH 7.5, 0.01% Brij-35, 10 mM MgCl2, and 1 mM EGTA). Recombinant GST-tagged JAK enzymes and a GFP-tagged STAT1 peptide substrate were obtained from Life Technologies.
(§3) Serially or discretely diluted compounds were pre-incubated with each of the four JAK enzymes and the substrate in white 384-well microplates (Corning) at ambient temperature for 1 h. ATP was subsequently added to initiate the kinase reactions in 10 μL total volume, with 1% DMSO. The final enzyme concentrations for JAK1, 2, 3 and Tyk2 are 4.2 nM, 0.1 nM, 1 nM, and 0.25 nM respectively; the corresponding Km ATP concentrations used are 25 μM, 3 μM, 1.6 μM, and 10 μM; while the substrate concentration is 200 nM for all four assays. Kinase reactions were allowed to proceed for 1 hour at ambient temperature before a 10 μL preparation of EDTA (10 mM final concentration) and Tb-anti-pSTAT1 (pTyr701) antibody (Life Technologies, 2 nM final concentration) in TR-FRET dilution buffer (Life Technologies) was added. The plates were allowed to incubate at ambient temperature for 1 h before being read on the EnVision reader (Perkin Elmer). Emission ratio signals (520 nm/495 nm) were recorded and utilized to calculate the percent inhibition values based on DMSO and background controls.
(§4) For dose-response analysis, percent inhibition data were plotted vs. compound concentrations, and IC50 values were determined from a 4-parameter robust fit model with the Prism software (GraphPad Software). Results were expressed as pIC50 (negative logarithm of IC50) and subsequently converted to pKi (negative logarithm of dissociation constant, Ki) using the Cheng-Prusoff equation.
(In general: TR-FRET usually uses a lanthanide donor and a delayed reading to cut background.)

The nature of series [2]: Aqueous Solubility Assay. The settings on record: PBS buffer pH 7.4; maximum upper limit 1,000 μM.
Series [3] has as its target JAK1 (Homo sapiens (Human), UniProt P23458). The experiment in a line: Biochemical JAK and Tyk2 Kinase Assays (LanthaScreen), JAK1. As to conditions: 25 μM ATP (Km); pIC50 converted to pKi by Cheng-Prusoff. As to the method:
as §1, §2, §3, §4

Series [4] concerns IL-2 stimulated pSTAT5 in Tall-1 T cells. The experiment in a line: Inhibition of IL-2 Stimulated pSTAT5 in Tall-1 T Cells. As to conditions: Tall-1 human T cell line, IL-2 300 ng/mL, AlphaLisa. Type of series: cell-based. The procedure:
Assay 2: Inhibition of IL-2 Stimulated pSTAT5 in Tall-1 T Cells
The potency of test compounds for inhibition of interleukin-2 (IL-2) stimulated STATS phosphorylation was measured in the Tall-1 human T cell line (DSMZ) using AlphaLisa. Because IL-2 signals through JAK1/3, this assay provides a measure of JAK1/3 cellular potency.
Phosphorylated STATS was measured via the AlphaLISA SureFire Ultra pSTAT5 (Tyr694/699) kit (PerkinElmer). Human T cells from the Tall-1 cell line were cultured in a 37° C., 5% CO2 humidified incubator in RPMI (Life Technologies) supplemented with 15% Heat Inactivated Fetal Bovine Serum (FBS, Life Technologies), 2 mM Glutamax (Life Technologies), 25 mM HEPES (Life Technologies) and 1× Pen/Strep (Life Technologies). Compounds were serially diluted in DMSO and dispensed acoustically to empty wells. Assay media (phenol red-free DMEM (Life Technologies) supplemented with 10% FBS (ATCC)) was dispensed (4 μL/well) and plates shaken at 900 rpm for 10 mins. Cells were seeded at 45,000 cells/well in assay media (4 μL/well), and incubated at 37° C., 5% CO2 for 1 hour, followed by the addition of IL-2 (R&D Systems; final concentration 300 ng/mL) in pre-warmed assay media (4 μL) for 30 minutes. After cytokine stimulation, cells were lysed with 6 ul of 3× AlphaLisa Lysis Buffer (PerkinElmer) containing 1× PhosStop and Complete tablets (Roche). The lysate was shaken at 900 rpm for 10 minutes at room temperature (RT). Phosphorylated STATS was measured via the pSTAT5 AlphaLisa kit (PerkinElmer). Freshly prepared acceptor bead mixture was dispensed onto lysate (51) under green filtered <100 lux light. Plates were shaken at 900 rpm for 2 mins, briefly spun down, and incubated for 2 hrs at RT in the dark. Donor beads were dispensed (5 μL) under green filtered <100 lux light. Plates were shaken at 900 rpm for 2 minutes, briefly spun down, and incubated overnight at RT in the dark. Luminescence was measured with excitation at 689 nm and emission at 570 nm using an EnVision plate r reader (PerkinElmer) under green filtered <100 lux light.
To determine the inhibitory potency of test compounds in response to IL-2, the average emission intensity of beads bound to pSTAT5 was measured in a human T cell line. IC50 values were determined from analysis of the inhibition curves of signal intensity versus compound concentration. Data are expressed as pIC50 (negative decadic logarithm IC50) values (mean±standard deviation).

The nature of series [5]: Solubility Assay in Organic Excipients. The settings on record: maximum upper limit 20,000 μM; for Solubility in MCT (mg/mL): medium chain triglycerides (MCT).

JAK3, sequence (P52333 whole entry): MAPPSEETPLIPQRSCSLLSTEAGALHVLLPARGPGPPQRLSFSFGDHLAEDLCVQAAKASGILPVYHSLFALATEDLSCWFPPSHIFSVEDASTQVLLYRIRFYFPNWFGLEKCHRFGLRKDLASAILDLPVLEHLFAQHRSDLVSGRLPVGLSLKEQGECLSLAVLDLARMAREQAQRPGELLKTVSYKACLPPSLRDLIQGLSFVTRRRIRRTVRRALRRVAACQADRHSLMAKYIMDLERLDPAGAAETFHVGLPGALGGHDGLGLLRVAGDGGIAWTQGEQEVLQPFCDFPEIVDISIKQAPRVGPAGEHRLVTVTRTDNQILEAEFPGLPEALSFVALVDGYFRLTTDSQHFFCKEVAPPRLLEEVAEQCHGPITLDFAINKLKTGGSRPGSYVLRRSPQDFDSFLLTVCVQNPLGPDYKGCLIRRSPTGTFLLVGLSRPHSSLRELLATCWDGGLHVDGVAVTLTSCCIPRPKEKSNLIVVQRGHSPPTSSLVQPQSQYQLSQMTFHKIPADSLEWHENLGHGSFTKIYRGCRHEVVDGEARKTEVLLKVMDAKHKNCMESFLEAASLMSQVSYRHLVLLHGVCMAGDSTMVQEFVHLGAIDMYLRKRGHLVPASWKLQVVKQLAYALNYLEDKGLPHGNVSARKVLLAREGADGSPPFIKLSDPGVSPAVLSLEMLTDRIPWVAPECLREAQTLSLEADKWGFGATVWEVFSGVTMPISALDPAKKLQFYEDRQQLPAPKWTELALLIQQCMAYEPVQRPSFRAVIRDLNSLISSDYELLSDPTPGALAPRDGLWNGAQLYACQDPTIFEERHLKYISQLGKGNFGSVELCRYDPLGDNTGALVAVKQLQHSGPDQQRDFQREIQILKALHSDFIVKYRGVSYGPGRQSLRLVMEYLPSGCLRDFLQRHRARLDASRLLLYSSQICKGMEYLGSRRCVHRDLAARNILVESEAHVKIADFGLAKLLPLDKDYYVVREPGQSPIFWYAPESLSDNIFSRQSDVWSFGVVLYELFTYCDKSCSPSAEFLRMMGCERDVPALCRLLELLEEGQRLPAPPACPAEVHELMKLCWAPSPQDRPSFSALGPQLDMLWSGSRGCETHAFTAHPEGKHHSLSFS
JAK1, sequence (P23458 whole entry): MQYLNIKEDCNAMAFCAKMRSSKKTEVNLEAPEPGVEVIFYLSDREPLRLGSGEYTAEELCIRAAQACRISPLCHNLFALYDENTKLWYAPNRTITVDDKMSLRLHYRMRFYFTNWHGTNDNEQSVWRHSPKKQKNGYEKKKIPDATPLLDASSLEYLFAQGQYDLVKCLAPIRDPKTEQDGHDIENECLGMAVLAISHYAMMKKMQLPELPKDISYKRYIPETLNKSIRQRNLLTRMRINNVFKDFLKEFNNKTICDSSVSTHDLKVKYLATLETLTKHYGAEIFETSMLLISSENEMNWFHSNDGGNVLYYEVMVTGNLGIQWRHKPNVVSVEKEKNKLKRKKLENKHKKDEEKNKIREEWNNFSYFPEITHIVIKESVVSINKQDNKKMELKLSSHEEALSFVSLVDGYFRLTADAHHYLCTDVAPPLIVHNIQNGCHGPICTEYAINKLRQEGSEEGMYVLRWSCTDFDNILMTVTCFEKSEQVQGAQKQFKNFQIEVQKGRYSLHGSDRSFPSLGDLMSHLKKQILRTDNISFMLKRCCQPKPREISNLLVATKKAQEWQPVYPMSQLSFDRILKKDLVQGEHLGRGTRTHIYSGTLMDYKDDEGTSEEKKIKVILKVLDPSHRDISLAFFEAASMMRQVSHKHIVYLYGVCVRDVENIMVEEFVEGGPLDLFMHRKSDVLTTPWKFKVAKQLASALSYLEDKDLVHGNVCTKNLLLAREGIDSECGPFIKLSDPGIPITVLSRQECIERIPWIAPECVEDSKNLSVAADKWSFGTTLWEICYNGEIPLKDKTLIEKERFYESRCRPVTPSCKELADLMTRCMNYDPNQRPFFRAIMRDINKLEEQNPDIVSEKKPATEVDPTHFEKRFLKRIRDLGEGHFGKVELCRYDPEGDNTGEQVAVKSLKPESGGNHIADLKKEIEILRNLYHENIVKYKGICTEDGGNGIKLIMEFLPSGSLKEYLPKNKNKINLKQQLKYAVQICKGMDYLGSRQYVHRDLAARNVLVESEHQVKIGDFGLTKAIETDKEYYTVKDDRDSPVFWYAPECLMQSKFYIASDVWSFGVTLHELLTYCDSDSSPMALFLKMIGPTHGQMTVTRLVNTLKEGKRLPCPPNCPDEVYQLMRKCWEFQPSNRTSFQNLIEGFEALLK

In the case of `Cc1cc(Nc2cc(C3CCOC3)nc(N(C)[C@@H]3C[C@H]4CCC[C@@H](C3)N4C(=O)CC3CC3)n2)n[nH]1` (stereo partly drawn) [Compound 7, 2-cyclopropyl-1-((1R,3s,5S)-3-(methyl(4-((5-methyl-1H-pyrazol-3-yl)amino)-6-(tetrahydrofuran-3-yl)pyrimidin-2-yl)amino)-9-azabicyclo[3.3.1]nonan-9-yl)ethan-1-one], in series [1], the “JAK 3 (pKi)” value is “C (C represents a pKi value between 8 and 9 (Ki between 10 nM and 1 nM))”. Also, the “Solubility at PH 7.4 (μmol)” value in series [2] is given as “E (E represents a value below 10)”. In series [3], the “JAK 1 (pKi)” value is “A (A represents a pKi value ≥10 (Ki≤0.1 nM))”. Besides, in series [4], the “Tall-1 IL2 pSTAT5 (pIC50)” value is “A (A represents a pIC50 value ≥8.0)”.
As to `COC(=O)N1[C@@H]2CCC[C@H]1C[C@H](N(C)c1nc(Nc3cc(C)[nH]n3)cc(C3CCOCC3)n1)C2` [Compound 3, methyl (1R,3s,5S)-3-(methyl(4-((5-methyl-1H-pyrazol-3-yl)amino)-6-(tetrahydro-2H-pyran-4-yl)pyrimidin-2-yl)amino)-9-azabicyclo[3.3.1]nonane-9-carboxylate], the “JAK 3 (pKi)” value in series [1] was “B (B represents a pKi value between 9 and 10 (Ki between 1 nM and 0.1 nM))”. The “Solubility at PH 7.4 (μmol)” value in series [2] is listed as “E (E represents a value below 10)”. In series [5], the “Solubility in PEG400 (mg/mL)” value was “C (C represents a value below 5)”, the “Solubility in Diisopropyl adipate (mg/mL)” value is listed as “C (C represents a value below 5)”, the “Solubility in MCT (mg/mL)” value was “C (C represents a value below 5)” and the “Solubility in Propylene glycol (mg/mL)” value is listed as “C (C represents a value below 5)”. In addition, the “JAK 1 (pKi)” value in series [3] was “B (B represents a pKi value between 9 and 10 (Ki between 1 nM and 0.1 nM))”. In series [4], the “Tall-1 IL2 pSTAT5 (pIC50)” value is “A (A represents a pIC50 value ≥8.0)”.
Take `CCC(=O)N1[C@@H]2CCC[C@H]1CC(N(C)c1nc(Nc3cc(C)[nH]n3)cc(OC3CCOC3)n1)C2` (stereo partly drawn) [Compound 46, 1-((1R,3s,5S)-3-(methyl(4-((5-methyl-1H-pyrazol-3-yl)amino)-6-((tetrahydrofuran-3-yl)oxy)pyrimidin-2-yl)amino)-9-azabicyclo[3.3.1]nonan-9-yl)propan-1-one]: the “JAK 3 (pKi)” value in series [1] was “B (B represents a pKi value between 9 and 10 (Ki between 1 nM and 0.1 nM))”. In series [2], the “Solubility at PH 7.4 (μmol)” value was “D (D represents a value between 10 and 50)”. Also, the “JAK 1 (pKi)” value in series [3] is given as “A (A represents a pKi value ≥10 (Ki≤0.1 nM))”. Moreover, the “Tall-1 IL2 pSTAT5 (pIC50)” value in series [4] was “A (A represents a pIC50 value ≥8.0)”.
For `COC(=O)N1[C@@H]2CCC[C@H]1C[C@H](N(C)c1nc(Nc3cc(C)[nH]n3)cc(C3CCOC3)n1)C2` (stereo partly drawn) [Compound 6, Methyl (1R,3s,5S)-3-(methyl(4-((5-methyl-1H-pyrazol-3-yl)amino)-6-(tetrahydrofuran-3-yl)pyrimidin-2-yl)amino)-9-azabicyclo[3.3.1]nonane-9-carboxylate], the “JAK 3 (pKi)” value in series [1] is “C (C represents a pKi value between 8 and 9 (Ki between 10 nM and 1 nM))”. Also, in series [2], the “Solubility at PH 7.4 (μmol)” value was “D (D represents a value between 10 and 50)”. For the same compound, in series [5], the “Solubility in PEG400 (mg/mL)” value was “C (C represents a value below 5)”, the “Solubility in Diisopropyl adipate (mg/mL)” value is reported as “C (C represents a value below 5)”, the “Solubility in MCT (mg/mL)” value is recorded as “C (C represents a value below 5)” and the “Solubility in Propylene glycol (mg/mL)” value is reported as “C (C represents a value below 5)”. Further, the “JAK 1 (pKi)” value in series [3] is listed as “A (A represents a pKi value ≥10 (Ki≤0.1 nM))”. Further, the “Tall-1 IL2 pSTAT5 (pIC50)” value in series [4] is listed as “A (A represents a pIC50 value ≥8.0)”.
Regarding `Cc1cc(Nc2cc(OCC3COC3)nc(N(C)[C@@H]3C[C@H]4CCC[C@@H](C3)N4C(=O)CC3CC3)n2)n[nH]1` [Compound 40, 2-cyclopropyl-1-((1R,3s,5S)-3-(methyl(4-((5-methyl-1H-pyrazol-3-yl)amino)-6-(oxetan-3-ylmethoxy)pyrimidin-2-yl)amino)-9-azabicyclo[3.3.1]nonan-9-yl)ethan-1-one], the “JAK 3 (pKi)” value in series [1] was “B (B represents a pKi value between 9 and 10 (Ki between 1 nM and 0.1 nM))”. Moreover, in series [2], the “Solubility at PH 7.4 (μmol)” value was “D (D represents a value between 10 and 50)”. The “JAK 1 (pKi)” value in series [3] was “A (A represents a pKi value ≥10 (Ki≤0.1 nM))”. Further, the “Tall-1 IL2 pSTAT5 (pIC50)” value in series [4] is reported as “A (A represents a pIC50 value ≥8.0)”.
Take `CCC(=O)N1[C@@H]2CCC[C@H]1C[C@H](N(C)c1nc(Nc3cc(C)[nH]n3)cc(O[C@@H]3CCOC3)n1)C2` [Compound 17, 1-((1R,3s,5S)-3-(methyl(4-((5-methyl-1H-pyrazol-3-yl)amino)-6-(((R)-tetrahydrofuran-3-yl)oxy)pyrimidin-2-yl)amino)-9-azabicyclo[3.3.1]nonan-9-yl)propan-1-one]: the “JAK 3 (pKi)” value in series [1] is “C (C represents a pKi value between 8 and 9 (Ki between 10 nM and 1 nM))”. Moreover, the “Solubility at PH 7.4 (μmol)” value in series [2] was “D (D represents a value between 10 and 50)”. Besides, in series [5], the “Solubility in PEG400 (mg/mL)” value is “B (B represents a value between 5 and 10)”; the “Solubility in Diisopropyl adipate (mg/mL)” value is “A (A represents a value above 10)”; the “Solubility in MCT (mg/mL)” value is “C (C represents a value below 5)”; the “Solubility in Propylene glycol (mg/mL)” value was “A (A represents a value above 10)”. Moreover, the “JAK 1 (pKi)” value in series [3] was “B (B represents a pKi value between 9 and 10 (Ki between 1 nM and 0.1 nM))”. Further, the “Tall-1 IL2 pSTAT5 (pIC50)” value in series [4] is “A (A represents a pIC50 value ≥8.0)”.
For `CCS(=O)(=O)N1[C@@H]2CCC[C@H]1C[C@H](N(C)c1nc(Nc3cc(C)[nH]n3)cc(O[C@@H]3CCOC3)n1)C2` [Compound 18, N^2-((1R,3s,5S)-9-(ethylsulfonyl)-9-azabicyclo[3.3.1]nonan-3-yl)-N2-methyl-N4-(5-methyl-1H-pyrazol-3-yl)-6-(((R)-tetrahydrofuran-3-yl)oxy)pyrimidine-2,4-diamine], the “JAK 3 (pKi)” value in series [1] is “B (B represents a pKi value between 9 and 10 (Ki between 1 nM and 0.1 nM))”. The “Solubility at PH 7.4 (μmol)” value in series [2] is “D (D represents a value between 10 and 50)”. In addition, in series [5], the “Solubility in PEG400 (mg/mL)” value is “B (B represents a value between 5 and 10)”; the “Solubility in Diisopropyl adipate (mg/mL)” value is “B (B represents a value between 5 and 10)”; the “Solubility in MCT (mg/mL)” value is on record as “C (C represents a value below 5)”; the “Solubility in Propylene glycol (mg/mL)” value is “B (B represents a value between 5 and 10)”. Moreover, the “JAK 1 (pKi)” value in series [3] is “A (A represents a pKi value ≥10 (Ki≤0.1 nM))”.
